Assay results reported in patent publication US20070117770A1, “Human ribosomal DNA (rDNA) and ribosomal RNA (rRNA) nucleic acids and uses thereof” (Cylene Pharmaceuticals, Inc., priority 2005, published 2007).
Entries after “also recorded” stand apart in the source; their conditions may differ.

What was measured:
nucleolin/1196NT = target: T1, nucleolin/1196NT (Homo sapiens, UniProt P19338); assay: EMSA, interference with nucleolin/nucleic acid ligand interaction; assay type: binding; design: key to Activity of Compound A-1 (relative interference), ligand 1196NT: +: least interference by compound A-1; ++++: greatest interference by compound A-1
T1 construct: without the N-terminal acidic stretches domain
Protocol: The following assays assessed effects of compounds on interactions between nucleolin and nucleic acid ligands capable of forming quadruplex (QP) and hairpin (HP) secondary structures. Nucleic acid ligands tested were a cMyc QP DNA having nucleotide sequence 5′-[…]-3′ (SEQ ID NO: 176) and a HP pre-rRNA region to which nucleolin binds, having the sequence 5′-[…]-3′ (SEQ ID NO: 177). In the assays, recombinant nucleolin (˜250 nM), which was fused to maltose binding protein and had the sequence under accession number NM_005381 without the N-terminal acidic stretches domain, was incubated with each of the two ^32P-labeled nucleic acid ligands (10 or 250 nM). Nucleolin and the nucleic acid ligand were incubated in the presence or absence of a test compound of Formula A-1, B-1, C-6 or C-7 in an incubation buffer (12.5 mM Tris, pH 7.6, 60 mM KCl, 1 mM MgCl2, 0.1 mM EDTA, 1 mM DTT, 5% glycerol, 0.1 mg/ml BSA) for 30 minutes at room temperature. Structures for A-1 and B-1 are shown above and structures for C-6 and C-7 are shown hereafter: [drawing 17] […]
The assay also was conducted in a filter-binding format. […] Radioactivity was assayed with MicroBeta scintillation counter (Perkin Elmer). Binding curves were constructed and apparent Kd's and Bmax's for the complexes were calculated using the GraphPad Prizm software program (GraphPad Software). […]

nucleolin/6534NT = target: T2, nucleolin/6534NT (Homo sapiens, UniProt P19338); assay: as above; assay type: binding; details: ligand 6534NT, read-out: IC50, concentration of Compound A-1 required to dissociate half of the complexed nucleic acid ligand and nucleolin protein
T2 construct: without the N-terminal acidic stretches domain
Protocol: The following assays assessed effects of compounds on interactions between nucleolin and nucleic acid ligands capable of forming quadruplex (QP) and hairpin (HP) secondary structures. Nucleic acid ligands tested were a cMyc QP DNA having nucleotide sequence 5′-[…]-3′ (SEQ ID NO: 176) and a HP pre-rRNA region to which nucleolin binds, having the sequence 5′-[…]-3′ (SEQ ID NO: 177). In the assays, recombinant nucleolin (˜250 nM), which was fused to maltose binding protein and had the sequence under accession number NM_005381 without the N-terminal acidic stretches domain, was incubated with each of the two ^32P-labeled nucleic acid ligands (10 or 250 nM). Nucleolin and the nucleic acid ligand were incubated in the presence or absence of a test compound of Formula A-1, B-1, C-6 or C-7 in an incubation buffer (12.5 mM Tris, pH 7.6, 60 mM KCl, 1 mM MgCl2, 0.1 mM EDTA, 1 mM DTT, 5% glycerol, 0.1 mg/ml BSA) for 30 minutes at room temperature. Structures for A-1 and B-1 are shown above and structures for C-6 and C-7 are shown hereafter: [drawing 17] The resulting complexes were separated on a 6% DNA retardation gel using 0.5× TBE with 20 mM KCl as a running buffer (i.e., electrophoresis mobility shift assay (EMSA)).
The assay also was conducted using nucleic acid ligands derived from human ribosomal DNA. Sequences of these nucleic acids are shown in the preceding example. […] A “+” represents the weakest nucleolin affinity and least interference by compound A-1 and a “++++” represents the strongest nucleolin affinity and greatest interference by compound A-1.
The assay also was conducted in a filter-binding format. […] The protein-quadruplex mixtures were incubated for 30 min at ambient temperature and filtered through mixed cellulose ester membrane filters (Millipore) with gentle suction. The filters were washed twice with […] of binding buffer, dried and OptiPhase ‘SuperMix’ scintillation cocktail (Perkin Elmer) was added to the wells. Radioactivity was assayed with MicroBeta scintillation counter (Perkin Elmer). Binding curves were constructed and apparent Kd's and Bmax's for the complexes were calculated using the GraphPad Prizm software program (GraphPad Software). In the following table, the nucleic acid ligand is designated in the first column using the nomenclature described herein; the second column provides the nucleotide sequence of the nucleic acid ligand; the third column is the conformation of the ligand as determined by circular dichroism (M is mixed, P is parallel, A is antiparallel, C is complex, SS is single-stranded and ND is not determined); the fourth column is the dissociation constant determined by the filter binding assay of nucleolin protein and the nucleic acid ligand; the fifth column is a Bmax constant determined by the filter binding assay, which is the percent of active nucleic acid ligand in each assay; and the sixth column presents the concentration of Compound A-1 required to dissociate half of the complexed nucleic acid ligand and nucleolin protein, as determined by the EMSA assay described above.

nucleolin in A549 cells = assay: Cell nucleolin localization (immunofluorescence); assay type: cell-based; details: 10 uM, two hours
Protocol: An assay was conducted to determine the effect of ribosomal nucleic acid interacting compounds on cell nucleolin location. In these studies, A549 cells were plated in borosilicate chamber slides. The cells were treated with 10 uM compound A-1 the next day for two hours, washed with phosphate buffered saline, fixed for 10 minutes in 4% paraformaldehyde, permeabilized for 5 minutes in a 1:1 ethanol:acetone mix, incubated with a 1:100 dilution of an anti-nucleolin monoclonal antibody (catalog no. RDI-NUCLEOLabm; Research Diagnostics, Inc.) in 5% donkey serum, followed by incubation with a 1:100 diluted TRITC-labeled secondary anti-mouse antibody and observed under a fluorescence microscope (e.g., Olympus) in the TRITC channel at 600× magnification. […] Accordingly, nucleolin was redistributed from the nucleolus to the nucleoplasm in cells treated with a compound tested in the assay.

[1] = tested on: mixed-parallel quadruplex structure; details: cited from earlier work
other kinases = assay: Protein kinase inhibition assays (panel, summary); assay type: biochemical; details: 2.5 μM
Protocol: Certain compounds were tested for activity in protein kinase inhibition assays. All substrates were dissolved and diluted to working stocks in de-ionized water, apart from histone H1 (10× working stock in 20 mM MOPS pH 7.0), PDKtide (10× working stock in 50 mM Tris pH 7.0) ATF2 (which is typically stored at a 20× working stock in 50 mM Tris pH 7.5, 150 mM NaCl, 0.1 mM EGTA, 0.03% Brij-35, 50% glycerol, 1 mM benzamidine, 0.2 mM PMSF and 0.1% R-mercaptoethanol), KKLNRTLSFAEPG (SEQ ID NO:203) and RRRLSFAEPG (SEQ ID NO:204) (50 mM HEPES pH 7.4) and GGEEEEYFELVKKKK (SEQ ID NO:205) (20 mM MOPS pH 7.0). All kinases were pre-diluted to a 10× working concentration prior to addition into the assay. The composition of the dilution buffer for each kinase is detailed below.
The following table denotes percent residual activity of each protein kinase when incubated with compound A-1 or B-1.

A549 cells = assay: Cell localization assay (fluorescence microscope); assay type: cell-based; details: 2 uM, one hour or two hours
Protocol: A cell localization assay was utilized to determine cell localization for compounds that interacted with rRNA. In these studies, A549 cells were plated in borosilicate chamber slides. The cells were treated with 2 uM compound A-1 the next day for one hour or two hours, washed with PBS, fixed for 10 min in 4% paraformaldehyde and observed under a fluorescence microscope (Olympus) in the Ex360 nm/Em548 nm channel at 600× magnification. […] Accordingly, a compound tested in the assay was localized in cell nucleoli.

[2] = tested on: 28S rRNA and 18S rRNA (total RNA from HCT116 cells); assay: Human rRNA interaction screening assay (agarose gel electrophoresis mobility shift); assay type: binding; details: 1 ug total RNA; 10 uM compound or 0.5 ug/mL PI, 15 min, room temperature
Protocol: RNA was isolated from HCT116 cells (RNeasy kit, QIAGEN) and contacted in vitro with each compound from a library of compounds. In representative assays, 1 ug of total RNA from HCT116 cells was incubated with 0.5 ug/mL of propidium iodide (PI), 10 uM compound A-1 or another compound in the library in a volume of 10 uL for 15 min at room temperature, followed by agarose gel electrophoresis. Fluorescence of the compounds was visualized on each gel. […] Compounds C-1, C-2, C-3, C-4 and C-5 have the following general formula: [drawing 15] [drawing 16]

T1 sequence (P19338 284-710 limits assumed): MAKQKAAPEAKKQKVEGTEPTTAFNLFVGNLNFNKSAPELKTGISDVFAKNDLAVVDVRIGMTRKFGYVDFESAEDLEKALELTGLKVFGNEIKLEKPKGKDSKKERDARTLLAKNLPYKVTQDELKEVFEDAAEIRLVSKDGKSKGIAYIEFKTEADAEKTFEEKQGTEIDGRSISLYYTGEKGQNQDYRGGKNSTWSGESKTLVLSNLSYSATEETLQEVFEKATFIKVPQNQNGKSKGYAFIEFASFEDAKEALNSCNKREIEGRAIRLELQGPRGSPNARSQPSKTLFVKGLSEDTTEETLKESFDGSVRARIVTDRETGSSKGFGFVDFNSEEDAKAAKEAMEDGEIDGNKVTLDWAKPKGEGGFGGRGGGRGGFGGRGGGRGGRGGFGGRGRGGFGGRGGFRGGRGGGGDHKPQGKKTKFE
T2 sequence (P19338 284-710 limits assumed): as above

Activity of Compound A-1 (relative interference), ligand 1196NT (nucleolin/1196NT): +
IC50 (nucleolin/1196NT; ligand 1196NT, read-out: IC50, concentration of Compound A-1 required to dissociate half of the complexed nucleic acid ligand and nucleolin protein): 3 µM
IC50 (nucleolin/6534NT): 10 µM
inhibition of other kinases (other kinases): 60-80%
SMILES: CN1CCCC1CCNC(=O)c1cn2c3c(c(N4CCC(c5cnccn5)C4)c(F)cc3c1=O)Oc1cc3ccccc3cc1-2 (centres unmarked) [Compound A-1]
nucleolin localization in treated cells (nucleolin in A549 cells): nucleolin was redistributed to the nucleoplasm
preferred quadruplex structure in competition assays [1]: interact preferentially with a mixed-parallel quadruplex structure
cell localization judged by fluorescence intensity (A549 cells): accumulated in the nucleoli, as well as the cytoplasm/perinuclear space
binding to 28S versus 18S rRNA [2]: bound preferentially to 28S rRNA; also recorded: selective binding to 28S over 18S
